Laboratory results: PMC5387716, “Discovery of monocarbonyl curcumin-BTP hybrids as STAT3 inhibitors for drug-sensitive and drug-resistant breast cancer therapy” (Scientific Reports, 2017)

Columns and labels:
MCF-7 cells = test: Annexin V-APC/7-AAD flow cytometry of apoptosis, MCF-7; assay type: cell-based, human; conditions: 24 h
Procedure: MCF-7, MCF-7/DOX or MCF-10A cells, at a density of 2.5 × 10^5 cells per well, were cultured in regular growth medium in 6-well plates for 24 h and treated in duplicate with different concentrations of 6b or curcumin for 24 h. The cells were harvested, washed and stained with 5 μL of Annexin V-APC and 5 μL of 7-AAD at room temperature for 15 min. Cells were then analyzed by flow cytometry (488 nm excitation and 600 nm emission filters) using a BD FACSCalibur flow cytometer (Becton & Dickinson Company, Franklin Lakes, NJ).

[1] = tested on: implanted human breast tumors (MCF-7); test: MCF-7 xenograft in BALB/c nude mice; assay type: in vivo; conditions: 10 mg/kg ip daily for 21 days
Procedure: The working solution was prepared in a Cremophor and DMSO mixture (10% Cremophor, 10% DMSO and 80% 1 × PBS) to give a 1 mg/ml solution. Athymic BALB/c nude mice (15–18 g) were injected with human breast tumor MCF-7 cells (3 × 10^6 cells in a volume of 0.2 ml) into the subcutaneous tissue of the right auxiliary region of the mice. Three days after the tumor cell inoculation, the mice were randomly sorted into three groups with six mice per group. The tumor-bearing mice were either given a daily 10 mg/kg ip injection of compound 6b or the vehicle. The treatment was initiated when the tumor burden of the mice reached approximately 50 mm^3. The tumor size was measured by caliper three times a week to document tumor growth and calculated by the formula: length × width × width/2, and the body weight was measured and recorded. Therapeutic efficacy was evaluated based on body weight loss, tumor growth inhibition [determined by using calipers and calculated by the formula: tumor inhibit rate (%) = (tumor volCon − tumor volTre)/tumor volCon] × 100. The body weight inhibitory ratio, BI (%) was calculated as BI (%) = (1 −MT/MC) × 100, where MT and MC were the average body weights of the treated and control groups, respectively. On the 22nd day, all mice were killed, and the tumors were segregated, weighed, and stored in −80 °C for later use. The levels of p-STAT3 in tumor tissues prepared from control or mice treated with 6b were analyzed by western blot assay. Apoptosis was evaluated via the TUNEL assay, and the Ki-67 assay was used to assess cancer cell proliferation.

Src = test: Western blot of p-Src; assay type: cell-based, human; conditions: MCF-7 and MCF-7/DOX cells, 24 h
Procedure: (§1) MCF-7 or MCF-7/DOX cells were incubated with various concentrations of 6b for 24 h. After trypsinization, cells were treated with 1× RIPA lysis buffer (50 mM Tris–HCl, pH 7.4, 150 mM NaCl, 0.25% deoxycholic acid, 1% NP-40, 1 mM EDTA and protease inhibitors) (Amresco, Solon, USA) to extract the total proteins. An aliquot of proteins from the total cell lysates (30 to 60 μg/lane) was separated by sodium dodecyl sulfate (10%) polyacrylamide gel electrophoresis (SDS–PAGE, Bio-Rad Laboratories, Hercules, CA), wet-transferred to NC membrane (Bio-Rad Laboratories, Hercules, CA) and blotted with primary antibodies specific for STAT3, p-STAT3, p-Jak2, Jak2, p-Src, Src, Erk, P-Erk, PARP, cleaved PARP, Bcl-2, Bax, Cyclin D1, P-gp and GAPDH. Bound immuno-complexes were detected using ChemiDOC™ XRS + system (Bio-Rad Laboratories, Hercules, CA).

MCF-7/DOX cells = test: ROS detection by DCFH-DA flow cytometry, MCF-7/DOX; assay type: cell-based, human; conditions: different concentrations (1, 2, 4 μM), 24 h
Procedure: MCF-7 or MCF-7/DOX cells were seeded at a density of 3 × 10^5 cells per well of a 6-well plate and treated with various concentrations of 6b (0, 1, 2, 4 μM) or 4 μM curcumin for 24 h. DCFH-DA was dissolved in serum-free medium and diluted to a final concentration of 10 μM. After treatment with 6b, the growth media was replaced with serum-free medium containing the probe. After incubation for 20 min at 37 °C, cells were washed with serum-free medium twice, digested by trypsin and resuspended in pre-warmed PBS buffer. The samples were then subjected to a flow cytometry assay using a BD FACSCalibur flow cytometer (Becton & Dickinson Company, Franklin Lakes, NJ).

Cyclin D1 gene = test: Quantitative real-time RT-PCR of Cyclin D1; assay type: cell-based, human; conditions: 24 h
Procedure: (§2) Levels of mRNA expression were analyzed with the RT-PCR assay, with total RNA isolated from MCF-7 or MCF-7/DOX cells using an EASYspin Plus tissue/cell RNA extraction kit (Aidlab Biotechnologies Co. Ltd). RNA was quantified by measuring absorption at 260 nm and 1 μg of RNA was reverse transcribed to cDNA using the Transcriptor First Strand cDNA Synthesis Kit (Roche Diagnostics, Basel, Switzerland). Thermal cycling conditions included 95 °C initial denaturation for 5 min, followed by 40 cycles of denaturation (10 s at 95 °C), annealing (15 s at 60 °C) and extension (15 s at 72 °C with a single fluorescence measurement), a melt curve program (60–95 °C with a 0.11 °C/s heat increase and continuous fluorescence measurement) and a cooling step to 40 °C. The Δ cycle threshold method was used for the calculation of relative differences in mRNA abundance with a LightCycler 480 (Roche Molecular Biochemicals, Mannheim, Germany). The data were normalized to the expression of GAPDH. The results were expressed as fold-changes. The RT-PCR primers that were used in this study are listed in the supporting information.

Jak2 = test: Western blot of p-Jak2; assay type: cell-based, human; conditions: MCF-7 and MCF-7/DOX cells, 24 h
Procedure: as §1

Bcl-2 gene = test: Quantitative real-time RT-PCR of Bcl-2; assay type: cell-based, human; conditions: 24 h
Procedure: as §2

`COc1ccc(/C=C/C(=O)N2CCN(C(=O)C3=Cc4cc(Br)ccc4S3(=O)=O)CC2)cc1` [Compound 6b, (E)-1-(4-(5-bromo-1,1-dioxidobenzo[b]thiophene-2-carbonyl)piperazin-1-yl)-3-(4-methoxyphenyl)prop-2-en-1-one] was tested, and the apoptosis rate (MCF-7 cells; 1 μM) was 15.7%, the apoptosis rate (MCF-7 cells; 2 μM) was 37.9% and the apoptosis rate (MCF-7 cells; 4 μM) was 67.2%. The “Ki-67 immunohistochemical staining in tumor tissues” value [1] was “suppressed tumor cell proliferation”, the “TUNEL assay of tumor cells” value [1] was “induced tumor cell apoptosis” and the “changes in the body weights of the mice” value [1] was “no significant changes”. The “reduction of the weight of the tumor tissues compared with the control” value [1] was 68.2%, the “p-STAT3 in lysates from the tumor tissues (immunoblotting)” value ([1]; vs control tumors) was “suppression of p-STAT3” and the “volumes of the implanted human breast tumors” value ([1]; vs vehicle) was “significantly reduced”. For the same compound, the p-Src expression (Src) was “little effect”, the “increase of ROS levels” value (MCF-7/DOX cells) was 2–8 fold and the “decrease in the gene expression level of Cyclin D1” value (“decrease … of Cyclin D1” for short) (Cyclin D1 gene; MCF-7/DOX cells, 1.0 μM) was 18.5%. For the same compound, the “decrease … of Cyclin D1” value (Cyclin D1 gene; MCF-7/DOX cells, 2.0 μM) was 51.0%, the “decrease … of Cyclin D1” value (Cyclin D1 gene; MCF-7/DOX cells, 4.0 μM) was 75.0% and the “Cyclin D1 gene level (in words)” value (Cyclin D1 gene; MCF-7 and MCF-7/DOX cells) was “decreased in a dose-dependent manner”. The “decrease … of Cyclin D1” value (Cyclin D1 gene; MCF-7 cells, 1.0 μM) was 16.0%, the “decrease … of Cyclin D1” value (Cyclin D1 gene; MCF-7 cells, 2.0 μM) was 28.4% and the “decrease … of Cyclin D1” value (Cyclin D1 gene; MCF-7 cells, 4.0 μM) was 45.5%. The “phosphorylation of Jak2” value (Jak2) was “inhibited”, the “decrease in the gene expression level of Bcl-2” value (from here on “decrease … of Bcl-2”) (Bcl-2 gene; MCF-7/DOX cells, 1.0 μM) was 27.5% and the “decrease … of Bcl-2” value (Bcl-2 gene; MCF-7/DOX cells, 2.0 μM) was 43.5%. For the same compound, the “decrease … of Bcl-2” value (Bcl-2 gene; MCF-7/DOX cells, 4.0 μM) was 71.0%, the “Bcl-2 gene level (in words)” value (Bcl-2 gene; MCF-7 and MCF-7/DOX cells) was “decreased in a dose-dependent manner” and the “decrease … of Bcl-2” value (Bcl-2 gene; MCF-7 cells, 1.0 μM) was 11.7%. For the same compound, the “decrease … of Bcl-2” value (Bcl-2 gene; MCF-7 cells, 2.0 μM) was 45.8% and the “decrease … of Bcl-2” value (Bcl-2 gene; MCF-7 cells, 4.0 μM) was 61.2%.
